Data published in PubChem BioAssay AID248 (DTP/NCI, 2004).
“And” between values parts separate entries of the source, which are not always exact repeats. Identical values can stand only once. Toxic doses and inconclusive results are not listed. Rule as the data show it: active = T/C of 150% or more; inactive = T/C below 125%. Numbered stars: 1 amine (or outer) side, 2 acyl side, 3 side chain; on linkers, the order of the positions; unused ones are H or OH. Square brackets hold non-standard residues; d marks the D form. Peptide text beside a SMILES is read from it. γGlu = O=C(O)[CH](CCC(=O)[*:2])N[*:1]; Hpg = N[CH](C(=O)O)c1ccc(O)cc1

Test system: L1210 leukemia ip in BDF1 mice, survival T/C
Test: NCI In Vivo Anticancer Drug Screen. Data for tumor model L1210 Leukemia (intraperitoneal) in B6D2F1 (BDF1) mice
Conditions: endpoint: mean survival time, higher = longer survival
Outline: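 Mice bearing the transplanted tumor received compound or vehicle. Survival of the treated group was divided by that of the vehicle-treated control group to give the ratio.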

[1] = dose: 100.0 mg/kg/injection, schedule: Q01DX001 (ip), vehicle: saline
[2] = dose: 200.0 mg/kg/injection, schedule: Q01DX001 (ip), vehicle: saline
[3] = dose: 400.0 mg/kg/injection, schedule: Q01DX001 (ip), vehicle: saline
[4] = dose: 100.0 mg/kg/injection, schedule: Q04DX003 (ip), vehicle: saline with Tween-80
[5] = dose: 100.0 mg/kg/injection, schedule: Q01DX009 (ip), vehicle: saline with Tween-80
[6] = dose: 400.0 mg/kg/injection, schedule: Q01DX009 (ip), vehicle: saline with Tween-80
[7] = dose: 100.0 mg/kg/injection, schedule: Q01DX001 (ip), vehicle: saline with Tween-80
[8] = dose: 200.0 mg/kg/injection, schedule: Q01DX001 (ip), vehicle: saline with Tween-80
[9] = dose: 200.0 mg/kg/injection, schedule: Q01DX009 (ip), vehicle: saline with Tween-80
[10] = dose: 400.0 mg/kg/injection, schedule: Q01DX001 (ip), vehicle: saline with Tween-80
[11] = dose: 100.0 mg/kg/injection, schedule: Q01DX001 (ip), vehicle: Klucel (hydroxypropylcellulose) (HPC)
[12] = dose: 200.0 mg/kg/injection, schedule: Q01DX001 (ip), vehicle: Klucel (hydroxypropylcellulose) (HPC)
[13] = dose: 400.0 mg/kg/injection, schedule: Q01DX001 (ip), vehicle: Klucel (hydroxypropylcellulose) (HPC)
[14] = dose: 100.0 mg/kg/injection, schedule: Q04DX003 (ip), vehicle: Klucel (hydroxypropylcellulose) (HPC)
[15] = dose: 200.0 mg/kg/injection, schedule: Q04DX003 (ip), vehicle: Klucel (hydroxypropylcellulose) (HPC)
[16] = dose: 100.0 mg/kg/injection, schedule: Q04DX003 (ip), vehicle: saline
[17] = dose: 200.0 mg/kg/injection, schedule: Q04DX003 (ip), vehicle: saline
[18] = dose: 400.0 mg/kg/injection, schedule: Q04DX003 (ip), vehicle: saline
[19] = dose: 400.0 mg/kg/injection, schedule: Q04DX003 (ip), vehicle: Klucel (hydroxypropylcellulose) (HPC)

Measured: T/C

O=C1C(N2CCCC2)=C(N2CC2)C(=O)C(N2CCCC2)=C1N1CC1
inactive: dose: 0.25 mg/kg/injection, schedule: Q01DX009 (ip), vehicle: saline 94 % of control and 119 % of control | dose: 0.39 mg/kg/injection, schedule: Q04DX003 (ip), vehicle: saline 108 % of control | dose: 0.5 mg/kg/injection, schedule: Q01DX009 (ip), vehicle: saline 101 % of control and 103 % of control | dose: 0.78 mg/kg/injection, schedule: Q04DX003 (ip), vehicle: saline 96 % of control | dose: 1.0 mg/kg/injection, schedule: Q01DX009 (ip), vehicle: saline 106 % of control and 118 % of control | dose: 1.56 mg/kg/injection, schedule: Q04DX003 (ip), vehicle: saline 115 % of control | dose: 2.0 mg/kg/injection, schedule: Q01DX001 (ip), vehicle: saline 108 % of control | dose: 2.0 mg/kg/injection, schedule: Q01DX009 (ip), vehicle: saline 121 % of control and 124 % of control | dose: 4.0 mg/kg/injection, schedule: Q01DX001 (ip), vehicle: saline 97 % of control | dose: 8.0 mg/kg/injection, schedule: Q01DX001 (ip), vehicle: saline 87 % of control | dose: 12.5 mg/kg/injection, schedule: Q04DX003 (ip), vehicle: saline 92 % of control

S=P(Nc1ccccc1)(Nc1ccccc1)Oc1cc(Cl)c(Cl)cc1Cl
inactive: [1] 92 % of control | [2] 93 % of control | [3] 92 % of control

CCCCNC(c1ccccc1)=[N+]1CCCCC1
inactive: dose: 12.5 mg/kg/injection, schedule: Q04DX002 (ip), vehicle: saline 92 % of control | dose: 25.0 mg/kg/injection, schedule: Q04DX002 (ip), vehicle: saline 98 % of control

CC12C(=O)N(C3CCC(=O)NC3=O)C(=O)C1C1CCC2C1 (stereo not given)
inactive: [4] 96 % of control

O=C(O)CC(C(=O)O)c1ccccc1O (stereo not given)
inactive: dose: 25.0 mg/kg/injection, schedule: Q04DX003 (ip), vehicle: Klucel (hydroxypropylcellulose) (HPC) 95 % of control | dose: 50.0 mg/kg/injection, schedule: Q01DX001 (ip), vehicle: saline 100 % of control | dose: 50.0 mg/kg/injection, schedule: Q04DX003 (ip), vehicle: Klucel (hydroxypropylcellulose) (HPC) 93 % of control | [1] 96 % of control | [2] 90 % of control

O=C(N/N=C/c1ccc(Cl)cc1)C(O)(c1ccccc1)c1ccccc1
inactive: [5] 88 % of control | [6] 102 % of control

C=NNC(=O)c1ccc(OC)cc1
inactive: dose: 50.0 mg/kg/injection, schedule: Q01DX001 (ip), vehicle: carboxymethylcellulose (CMC) 96 % of control | dose: 100.0 mg/kg/injection, schedule: Q01DX001 (ip), vehicle: carboxymethylcellulose (CMC) 96 % of control | dose: 200.0 mg/kg/injection, schedule: Q01DX001 (ip), vehicle: carboxymethylcellulose (CMC) 93 % of control | dose: 400.0 mg/kg/injection, schedule: Q01DX001 (ip), vehicle: carboxymethylcellulose (CMC) 93 % of control

CC(NC(=O)CCC(NC(=O)C(Cc1ccc(O)cc1)NC(=O)CNC(=O)C(C)NC(=O)CCC(NC(=O)C(N)c1ccc(O)cc1)C(=O)O)C(=O)O)C(=O)NCC(=O)NCC(=O)O (stereo not given) (H-[Hpg][γGlu]AGY[γGlu]AGG-OH; configuration not given here)
inactive: [1] 97 % of control | [2] 98 % of control | [3] 97 % of control

O=C1CCCCC(=O)CCCC1
inactive: [1] 102 % of control | [2] 100 % of control | [3] 105 % of control

O=C(O)COc1ccccc1CO
inactive: [7] 91 % of control | [5] 88 % of control | [8] 94 % of control | [9] 94 % of control | [10] 92 % of control | [6] 91 % of control

O=CN(O)CC(=O)O.[Ni]
inactive: dose: 6.25 mg/kg/injection, schedule: Q01DX009 (ip), vehicle: saline 105 % of control | dose: 12.5 mg/kg/injection, schedule: Q01DX009 (ip), vehicle: saline 109 % of control

Clc1ccc2c(n1)Sc1c(Cl)nc(Cl)nc1N2
inactive: [11] 95 % of control | [12] 108 % of control | [13] 93 % of control

CN1N=C([P+](c2ccccc2)(c2ccccc2)c2ccccc2)CC1(c1ccccc1)c1ccccc1
inactive: dose: 75.0 mg/kg/injection, schedule: Q01DX001 (ip), vehicle: saline 103 % of control | dose: 150.0 mg/kg/injection, schedule: Q01DX001 (ip), vehicle: saline 100 % of control

OCC(O)C(O)C(OC1OC(CO)C(O)C(O)C1O)C(O)CO (stereo not given)
inactive: [11] 99 % of control | [12] 89 % of control | [13] 99 % of control

O=S1(=O)CCCC1=C(c1ccccc1)c1ccccc1
inactive: [5] 105 % of control | [9] 100 % of control | [6] 107 % of control

CCCCCCCCCCCCCCCCNS(=O)(=O)c1ccc(NN)cc1
inactive: dose: 50.0 mg/kg/injection, schedule: Q01DX009 (ip), vehicle: Klucel (hydroxypropylcellulose) (HPC) 98 % of control | dose: 100.0 mg/kg/injection, schedule: Q01DX009 (ip), vehicle: Klucel (hydroxypropylcellulose) (HPC) 99 % of control | [14] 97 % of control | dose: 200.0 mg/kg/injection, schedule: Q01DX009 (ip), vehicle: Klucel (hydroxypropylcellulose) (HPC) 91 % of control | [15] 95 % of control

CC(C)NC(=O)NS(=O)(=O)c1ccc(N)cc1
inactive: [16] 94 % of control | [17] 103 % of control | [18] 110 % of control

CCCC(=O)Nc1cc(C)ccc1OC
inactive: [7] 94 % of control | [5] 101 % of control and 90 % of control | dose: 100.0 mg/kg/injection, schedule: Q04DX002 (ip), vehicle: saline with Tween-80 103 % of control and 92 % of control | [8] 98 % of control | [9] 101 % of control and 106 % of control | dose: 200.0 mg/kg/injection, schedule: Q04DX002 (ip), vehicle: saline with Tween-80 97 % of control and 92 % of control | [10] 94 % of control | [6] 97 % of control and 87 % of control | dose: 400.0 mg/kg/injection, schedule: Q04DX002 (ip), vehicle: saline with Tween-80 95 % of control and 98 % of control

O=[N+]([O-])c1ccc(Oc2ccc(Br)cc2)cc1
inactive: [14] 104 % of control | [15] 104 % of control | [19] 93 % of control

Nc1cc(C(Cl)(Cl)Cl)nc(Cl)n1
inactive: [14] 105 % of control | [15] 94 % of control | [19] 94 % of control

C=CC(=O)Nc1cccc(OC(=O)NC(C)(C)C)c1
inactive: [4] 101 % of control | dose: 200.0 mg/kg/injection, schedule: Q04DX003 (ip), vehicle: saline with Tween-80 92 % of control | dose: 400.0 mg/kg/injection, schedule: Q04DX003 (ip), vehicle: saline with Tween-80 87 % of control

N=Cc1c(O)[nH]c(=O)[nH]c1=O
inactive: dose: 100.0 mg/kg/injection, schedule: Q01DX009 (ip), vehicle: saline 95 % of control | [16] 97 % of control | dose: 200.0 mg/kg/injection, schedule: Q01DX009 (ip), vehicle: saline 90 % of control | [17] 93 % of control | dose: 400.0 mg/kg/injection, schedule: Q01DX009 (ip), vehicle: saline 91 % of control | [18] 95 % of control
